Measured values from PubChem BioAssay AID248 (DTP/NCI, 2004).
Values joined by “and” are separate entries in the source; they are usually repeats but may differ in a detail not shown here. Equal values may be shown once. Toxic doses and inconclusive results are not listed. Cut-off read from the data, not from the text of the source: active = T/C of 150% or more; inactive = T/C below 125%.

Tested on: L1210 leukemia ip in BDF1 mice, survival T/C
Test: NCI In Vivo Anticancer Drug Screen. Data for tumor model L1210 Leukemia (intraperitoneal) in B6D2F1 (BDF1) mice
Settings: endpoint: mean survival time, higher = longer survival
Method in brief: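 Each compound was tested against a transplantable tumor grown in mice. The endpoint was survival, with treated animals benchmarked against vehicle controls as a simple ratio.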

[1] = dose: 50.0 mg/kg/injection, schedule: Q04DX003 (ip), vehicle: saline
[2] = dose: 100.0 mg/kg/injection, schedule: Q04DX003 (ip), vehicle: saline
[3] = dose: 200.0 mg/kg/injection, schedule: Q04DX003 (ip), vehicle: saline
[4] = dose: 400.0 mg/kg/injection, schedule: Q04DX003 (ip), vehicle: saline
[5] = dose: 100.0 mg/kg/injection, schedule: Q04DX002 (ip), vehicle: Klucel (hydroxypropylcellulose) (HPC)
[6] = dose: 50.0 mg/kg/injection, schedule: Q01DX001 (ip), vehicle: carboxymethylcellulose (CMC)
[7] = dose: 100.0 mg/kg/injection, schedule: Q01DX001 (ip), vehicle: carboxymethylcellulose (CMC)
[8] = dose: 200.0 mg/kg/injection, schedule: Q01DX001 (ip), vehicle: carboxymethylcellulose (CMC)
[9] = dose: 400.0 mg/kg/injection, schedule: Q01DX001 (ip), vehicle: carboxymethylcellulose (CMC)
[10] = dose: 100.0 mg/kg/injection, schedule: Q01DX009 (ip), vehicle: Klucel (hydroxypropylcellulose) (HPC)
[11] = dose: 100.0 mg/kg/injection, schedule: Q04DX003 (ip), vehicle: Klucel (hydroxypropylcellulose) (HPC)
[12] = dose: 200.0 mg/kg/injection, schedule: Q01DX009 (ip), vehicle: Klucel (hydroxypropylcellulose) (HPC)
[13] = dose: 200.0 mg/kg/injection, schedule: Q04DX003 (ip), vehicle: Klucel (hydroxypropylcellulose) (HPC)
[14] = dose: 400.0 mg/kg/injection, schedule: Q04DX003 (ip), vehicle: Klucel (hydroxypropylcellulose) (HPC)

Measured: T/C

CCOP(=O)(CCP(=O)(CCP(=O)(OCC)OCC)CCP(=O)(OCC)OCC)OCC
inactive: dose: 50.0 mg/kg/injection, schedule: Q01DX009 (ip), vehicle: saline 94 % of control | [1] 103 % of control | dose: 100.0 mg/kg/injection, schedule: Q01DX009 (ip), vehicle: saline 94 % of control | [2] 103 % of control | dose: 200.0 mg/kg/injection, schedule: Q01DX009 (ip), vehicle: saline 98 % of control | [3] 101 % of control | [4] 98 % of control

CC1=NC(C)CNC(C)(C)CC(C)=NC(C)CNC(C)(C)C1 (stereo not drawn)
inactive: dose: 25.0 mg/kg/injection, schedule: Q04DX002 (ip), vehicle: Klucel (hydroxypropylcellulose) (HPC) 88 % of control | dose: 50.0 mg/kg/injection, schedule: Q04DX002 (ip), vehicle: Klucel (hydroxypropylcellulose) (HPC) 94 % of control | [5] 112 % of control

CC(C)(C(=Nc1ccccc1)N1CCCCC1)c1ccccc1
inactive: dose: 75.0 mg/kg/injection, schedule: Q01DX001 (ip), vehicle: saline 97 % of control | dose: 150.0 mg/kg/injection, schedule: Q01DX001 (ip), vehicle: saline 94 % of control | dose: 300.0 mg/kg/injection, schedule: Q01DX001 (ip), vehicle: saline 96 % of control

N=C(N)c1ccc(OCCCCOc2ccc(NC(=O)Nc3ccc(S(=O)(=O)F)cc3Cl)cc2)cc1
inactive: dose: 100.0 mg/kg/injection, schedule: Q01DX001 (ip), vehicle: saline with Tween-80 91 % of control | dose: 200.0 mg/kg/injection, schedule: Q01DX001 (ip), vehicle: saline with Tween-80 90 % of control

Cc1c2oc3c(C)ccc(C(=O)NCCN4CCOCC4)c3nc-2c(C(=O)NCCN2CCOCC2)c(N)c1=O
inactive: dose: 100.0 mg/kg/injection, schedule: Q04DX002 (ip), vehicle: saline with Tween-80 98 % of control | dose: 200.0 mg/kg/injection, schedule: Q04DX002 (ip), vehicle: saline with Tween-80 92 % of control

COc1cc(Nc2nc(Cl)ncc2[N+](=O)[O-])cc(OC)c1OC
inactive: dose: 100.0 mg/kg/injection, schedule: Q04DX003 (ip), vehicle: saline with Tween-80 90 % of control | dose: 200.0 mg/kg/injection, schedule: Q04DX003 (ip), vehicle: saline with Tween-80 92 % of control | dose: 400.0 mg/kg/injection, schedule: Q04DX003 (ip), vehicle: saline with Tween-80 92 % of control

Fc1cc(N(CCCl)CCCl)ccc1CN1CCCN(Cc2ccc(N(CCCl)CCCl)cc2F)C1c1ccc(N(CCCl)CCCl)cc1Cl
inactive: [6] 105 % of control | [7] 96 % of control | [8] 100 % of control | [9] 102 % of control

Nc1nc(NCCCc2ccccc2)c([N+](=O)[O-])c(=O)[nH]1
inactive: dose: 100.0 mg/kg/injection, schedule: Q01DX009 (ip), vehicle: saline with Tween-80 93 % of control | dose: 200.0 mg/kg/injection, schedule: Q01DX009 (ip), vehicle: saline with Tween-80 97 % of control

CC1=CC(=O)NC1=O
inactive: dose: 25.0 mg/kg/injection, schedule: Q04DX003 (ip), vehicle: saline 103 % of control | [1] 98 % of control | [2] 97 % of control

Nc1ccccc1C(=O)OCCc1ccccc1
inactive: [10] 93 % of control | [11] 94 % of control | [12] 93 % of control | [13] 95 % of control | dose: 400.0 mg/kg/injection, schedule: Q01DX009 (ip), vehicle: Klucel (hydroxypropylcellulose) (HPC) 95 % of control | [14] 92 % of control

CN(Cc1cnc2cc(N)nc(N)c2n1)c1ccc(C(=O)O)cc1
inactive: dose: 25.0 mg/kg/injection, schedule: Q01DX009 (ip), vehicle: other 108 % of control | dose: 50.0 mg/kg/injection, schedule: Q01DX009 (ip), vehicle: other 106 % of control | dose: 75.0 mg/kg/injection, schedule: Q01DX001 (ip), vehicle: other 98 % of control | dose: 100.0 mg/kg/injection, schedule: Q01DX009 (ip), vehicle: other 101 % of control | dose: 150.0 mg/kg/injection, schedule: Q01DX001 (ip), vehicle: other 102 % of control | dose: 300.0 mg/kg/injection, schedule: Q01DX001 (ip), vehicle: other 105 % of control

CC1CN(Cl)C(=O)N(Cl)C1=O (stereo not drawn)
inactive: dose: 10.0 mg/kg/injection, schedule: Q01DX001 (ip), vehicle: saline 96 % of control | dose: 20.0 mg/kg/injection, schedule: Q01DX001 (ip), vehicle: saline 98 % of control | dose: 40.0 mg/kg/injection, schedule: Q01DX001 (ip), vehicle: saline 92 % of control

CC(C)(C)c1cc2c(cc1O)C(C)(C)CCC2(C)C
inactive: [5] 105 % of control | dose: 200.0 mg/kg/injection, schedule: Q04DX002 (ip), vehicle: Klucel (hydroxypropylcellulose) (HPC) 105 % of control | dose: 400.0 mg/kg/injection, schedule: Q04DX002 (ip), vehicle: Klucel (hydroxypropylcellulose) (HPC) 98 % of control

O=P(OCc1ccccc1)(OCc1ccccc1)C(Nc1ccccc1)c1ccccc1 (stereo not drawn)
inactive: dose: 50.0 mg/kg/injection, schedule: Q01DX009 (ip), vehicle: Klucel (hydroxypropylcellulose) (HPC) 100 % of control | [10] 103 % of control | [11] 100 % of control | [12] 103 % of control | [13] 94 % of control | [14] 93 % of control

Nc1cc(F)c2c(c1)Cc1cc(F)ccc1-2
inactive: [6] 101 % of control | [7] 109 % of control | [8] 95 % of control

CCCc1c(Cl)nc(Cl)nc1Cl
inactive: dose: 37.5 mg/kg/injection, schedule: Q01DX009 (ip), vehicle: acetone 111 % of control | dose: 66.0 mg/kg/injection, schedule: Q04DX003 (ip), vehicle: saline 104 % of control and 105 % of control | [7] 100 % of control | [2] 100 % of control and 104 % of control | dose: 150.0 mg/kg/injection, schedule: Q04DX003 (ip), vehicle: saline 106 % of control and 107 % of control | [8] 108 % of control | [9] 96 % of control

CC1(C)C2CCC1(C)C(OCCCN=C(N)CSS(=O)(=O)O)C2 (stereo not drawn)
inactive: dose: 1.5 mg/kg/injection, schedule: Q04DX002 (ip), vehicle: Klucel (hydroxypropylcellulose) (HPC) 113 % of control | dose: 3.0 mg/kg/injection, schedule: Q04DX002 (ip), vehicle: Klucel (hydroxypropylcellulose) (HPC) 100 % of control | dose: 6.0 mg/kg/injection, schedule: Q04DX002 (ip), vehicle: Klucel (hydroxypropylcellulose) (HPC) 91 % of control

CCC(=O)c1ccc(OC(C)=O)c(OC(C)=O)c1
inactive: dose: 50.0 mg/kg/injection, schedule: Q01DX001 (ip), vehicle: saline 101 % of control | dose: 100.0 mg/kg/injection, schedule: Q01DX001 (ip), vehicle: saline 101 % of control | [2] 100 % of control | dose: 200.0 mg/kg/injection, schedule: Q01DX001 (ip), vehicle: saline 109 % of control | [3] 97 % of control | dose: 400.0 mg/kg/injection, schedule: Q01DX001 (ip), vehicle: saline 97 % of control | [4] 100 % of control
